The record followed here is US11266686B2, “Metal complexes and methods of treatment” (PROCYPRA THERAPEUTICS LLC, priority 2013, dated 2022).

A short description of this data set: Pharmacokinetics in mice after oral administration, plasma and brain by LC/MS/MS. The settings on record: 30 mg/kg CuXTSM API oral; for Brain AUC0-24h / Brain AUC0-inf / Brain Cmax / Brain Tmax / Brain t½ (number of time points): mouse brain; for Brain t½ (number of time points) / Plasma t½ (number of time points): bracket = number of time points; for Plasma Ke / Plasma MRT / Plasma AUC0-24h / Plasma AUC0-inf / Plasma Cmax / Plasma Tmax / Plasma t½ (number of time points): mouse plasma; for Plasma AUC0-24h / Plasma AUC0-inf / Plasma Cmax / Plasma Tmax: CuATSM in SSV, NCDs in water. Here is the method:
CuATSM was suspended in “Standard Suspension Vehicle” (SSV), consisting of 0.9% (w/v) NaCl, 0.5% (w/v) sodium carboxymethylcellulose, 0.5% (v/v) benzyl alcohol, and 0.4% (v/v) Tween 80 in deionized water. All other test compounds were suspended in sterile water. Samples were prepared by adding one of the compounds to the liquid vehicle (water or SSV) in a vial and then vortexing the mixture for 3 min with a stir bar inside. If the powdered sample was not completely wetted or not completely suspended, the sample was vortexed for another minute. If wetting was still incomplete, the vial was sonicated until a fully wetted suspension was obtained. Between doses, the sample was stirred on medium speed and then vortexed for an additional 20 s immediately before the next dose was removed from the vial. All dosing was completed from a single preparation of the suspension within 60 min of adding the compound to water or SSV.
Mice were deprived of pelleted food overnight, during which time 10% dextrose, as Dextroput, was provided in tap water, after which the test items were administrated orally by gavage in water or SSV. […] The blood samples were kept on ice after sampling and centrifuged at +4° C., 1800×g for 5 min to prepare plasma. Plasma samples were extracted and transferred into pre-labelled Eppendorf test tubes (50 μl exact in one vial, and the remaining in a second vial) and frozen at −20° C. The samples were transported on dry ice to the analysis site. Following blood sampling, mice were euthanized by cervical dislocation, and then brains were collected through opened skulls. The brains were weighed and placed in test tubes and placed on water ice. Phosphate-buffered saline (PBS, pH 7.4), 4 ml per 1 g of brain tissue, was added to the test tube and brains were homogenized by using Ultra-Turrax T25 homogenizer/S25N-10G (Setting 2, 9500 rpm, approximately 10 s). The homogenate was frozen at −20° C. immediately after homogenization. The samples were transported on dry ice to the analysis site.
Dosed mice were studied in triplicate for each of the seven time points, totaling 21 mice dosed for each studied compound. Plasma samples and brain homogenates from four untreated animals were also obtained. The plasma samples were thawed at room temperature (RT), mixed with 2-fold volume of acetonitrile, shaken and centrifuged for 10 min at 13 000×g (Heraeus Pico 17 centrifuge), after which supernatants were transferred into glass vials. The brain homogenate samples were mixed with 2-fold volume of acetonitrile:methanol, shaken, ultrasonicated for 20 min, and centrifuged for 10 min at 13 000×g (Heraeus Pico 17 centrifuge), after which supernatants were transferred into glass vials. […] Quality control (QC) samples were prepared for concentrations 10, 100 and 1000 ng/ml in plasma or brain homogenates.
Elution was with gradient of 0.5% formic acid/acetonitrile (99:1) increased step-wise to (5:95).
The pharmacokinetic parameters for study compounds in plasma and brain were calculated using standard non-compartmental methods. The elimination phase half-life (t½) was calculated by least-squares regression analysis of the terminal linear part of the log concentration-time curve. […] The maximum concentration (Cmax) and the time to Cmax (Tmax) were derived directly from the concentration data. Mean Residence Time, MRT, and elimination rate constant, Ke, were also calculated from the concentration vs. time data of plasma samples.

For the compound `CNC1=NN=C(C)C(C)=NN=C(NC)[S][Cu][S]1.O=C(O)CC(O)(CC(=O)O)C(=O)O` [CuATSM:citric acid (1:1)], the “Brain AUC0-24h” value worked out at 15435 ng·min/g, the “Brain AUC0-inf” value came out at 15563 ng·min/g, the “Brain Cmax” value came out at 77.0 ng/g and the “Brain Tmax” value was determined as 1 h. Also, the “Brain t½ (number of time points)” value is recorded as 218 (4) min, the “Plasma Ke” value was determined as 0.0034 min⁻¹, the “Plasma MRT” value was found to be 5.25 h and the “Plasma AUC0-24h” value worked out at 8292 ng·min/mL. Also, the “Plasma AUC0-inf” value is 8366 ng·min/mL, the “Plasma Cmax” value was determined as 14.5 ng/mL, the “Plasma Tmax” value came to 1 h and the “Plasma t½ (number of time points)” value is 204 (3) min.

Take `CNC1=NN=CC(C)=NN=C(NC)[S][Cu][S]1.O=C1NS(=O)(=O)c2ccccc21.O=C1NS(=O)(=O)c2ccccc21` [CuPTSM:saccharin (1:2)]: the “Brain AUC0-24h” value was 62832 ng·min/g, the “Brain AUC0-inf” value was determined as 72025 ng·min/g, the “Brain Cmax” value is listed as 189 ng/g and the “Brain Tmax” value came to 0.5 h. For the same compound, the “Brain t½ (number of time points)” value is on record as 487 (2) min, the “Plasma Ke” value is 0.0016 min⁻¹, the “Plasma MRT” value was 7.9 h and the “Plasma AUC0-24h” value turned out to be 60004 ng·min/mL. Also, the “Plasma AUC0-inf” value was 68278 ng·min/mL, the “Plasma Cmax” value is 91.5 ng/mL, the “Plasma Tmax” value was 1 h and the “Plasma t½ (number of time points)” value was 439 (2) min. Further, the “Brain:plasma-ratio (Cmax-based)” value (mouse) came out at 2.1.
